Results published in patent publication US8389565B2, “Glycosidase inhibitors and methods of synthesizing same” (Simon Fraser University, priority 2000, dated 2013).
Structures can show the parent of a compound that is named as a salt.

Tests used:
sucrase = settings: cited from earlier work
[1] = target: T1, glucoamylase G2 form from Aspergillus niger (Aspergillus niger, UniProt P69328); assay: Inhibition of glucoamylase G2-catalyzed hydrolysis of maltose; assay type: biochemical
T1 construct: purchased Novo Nordisk, Bagsvaerd, Denmark
T1 sequence (P69328 other isoform, or with tags, fused parts or gaps): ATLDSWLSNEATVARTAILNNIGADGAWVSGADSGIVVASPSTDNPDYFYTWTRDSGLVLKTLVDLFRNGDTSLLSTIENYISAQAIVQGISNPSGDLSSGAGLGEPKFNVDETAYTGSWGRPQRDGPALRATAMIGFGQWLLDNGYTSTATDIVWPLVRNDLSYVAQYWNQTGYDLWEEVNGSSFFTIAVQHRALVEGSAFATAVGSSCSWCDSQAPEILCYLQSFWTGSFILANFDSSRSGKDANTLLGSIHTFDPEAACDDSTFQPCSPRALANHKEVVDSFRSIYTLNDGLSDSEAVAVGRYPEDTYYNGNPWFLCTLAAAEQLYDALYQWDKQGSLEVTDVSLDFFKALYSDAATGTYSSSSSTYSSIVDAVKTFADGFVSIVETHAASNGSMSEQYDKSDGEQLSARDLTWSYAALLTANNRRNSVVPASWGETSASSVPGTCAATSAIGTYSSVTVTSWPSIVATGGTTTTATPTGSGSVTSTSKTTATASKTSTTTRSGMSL
Description: The glucoamylase G2 form from Aspergillus niger was purified from a commercial enzyme (Novo Nordisk, Bagsvaerd, Denmark) as described.^19,20 The initial rates of glucoamylase G2-catalyzed hydrolysis of maltose was tested with 1 mM maltose as substrate in 0.1 M sodium acetate pH 4.5 at 45° C. using an enzyme concentration of 7.0×10^−8 M and five inhibitor concentrations in the range 1 μm-5 mM. The effect of the inhibition on rates of substrate hydrolysis were compared for the different compounds.

[2] = test system: maltase activity in biopsies with live intestinal cells; assay: Maltase activity in biopsies with live intestinal cells; assay type: cell-based, human; settings: 5 μM concentration
Text: • 1) It appears that Acarbose acts principally by inhibiting human pancreatic α-amylase (HPA) and the breakdown of starch.

Sprague-Dawley rats = assay: In vivo maltose gavage in catheterized rats: plasma glucose and insulin; parameters: species or system rat; settings: maltose gavage 1000 mg/kg with 25 mg/kg drug
Description: Five week old Sprague-Dawley rats were housed singly under a 12:12-h light-dark photoperiod and given free access to water and rat chow (Purina rodent chow). After one week of acclimation, chronic indwelling catheters were implanted.
Animals were anesthetized with a combination of Ketamine-Xylazine-Butorphanol (0.1 ml/100 g im). Analgesic (Butorphenol, 1 mg/kg sc) was administered following recovery from anesthesia and the following morning. Antibiotic was administered by one dose sc and in the drinking water for 4 days post-operative (Baytril, 5 mg/kg sc, Bayer, Toronto, Canada; Baytril, 50 mg/ml: 0.36 ml solution in 250 ml drinking water). A sterile catheter (Intramedic PE-50 with ˜3 cm beveled Silastic tip) was placed in the left carotid artery and the distal end of the catheter was tunneled subcutaneously, exteriorized, and anchored at the nape of the neck. The catheters were protected from chewing by a stainless steel tether connected to a swivel system which allowed free movement of the animal and easy access to the catheter by the investigator.
The animals were allowed to recover for 1 week. Experiments were performed on conscious, unrestrained animals that had been fasted overnight by removal of chow from the cage hoppers at 2100. At 0800 the following morning animals were weighed and Atropine (0.05 mg/kg sc) was administered as a […]. At baseline, animals were administered a bolus of maltose by oral gavage (1000 mg/kg body weight) with or without drug (25 mg/kg body weight for all agents). Blood samples (0.1 mL) were taken via the implanted carotid line at -15 and -5 min for the baseline and at 7, 15, 30, 60, 90, 120, 210, 300 min.
Blood samples were kept on ice in microcentrifuge tubes and then were centrifuged. The plasma was stored at −20° C. until it was assayed. Plasma volume was triple replaced with heparinized saline (10u/mL), but red blood cells were not reinfused. Plasma glucose was assayed with the glucose oxidase method (Trinder RAICHEM Division of Hemagen Diagnostics, Inc. San Diego, Calif.). Plasma insulin concentrations were measured by rat insulin ELISA (Crystal Chem INC, Downers Grove, Ill.). Six experiments were performed for each treatment (control, Blintol, Acarbose, Salacinol).
All data are presented as means±SE. The significance of changes in plasma glucose and insulin were tested by two-way repeated-measures analysis of variance and were performed with the Statistical Analysis System for Windows (version 6.3, SAS Institute, Cary, N.C.). AUCs were compared using unpaired t-tests.

[3] = target: Maltase Glucoamylase (MGA) (Homo sapiens, UniProt O43451); assay: MGA activity in extracts of COS cells transfected with MGA5′ (maltase subunit) construct, maltose hydrolysis, glucose oxidase colorimetric assay; assay type: biochemical; parameters: COS cells transfected with MGA5′ (maltase subunit clone 10) construct were used; expressed in transfected cells; host or cells: COS cells
Chain of Maltase Glucoamylase (MGA) (O43451 356-737 limits assumed): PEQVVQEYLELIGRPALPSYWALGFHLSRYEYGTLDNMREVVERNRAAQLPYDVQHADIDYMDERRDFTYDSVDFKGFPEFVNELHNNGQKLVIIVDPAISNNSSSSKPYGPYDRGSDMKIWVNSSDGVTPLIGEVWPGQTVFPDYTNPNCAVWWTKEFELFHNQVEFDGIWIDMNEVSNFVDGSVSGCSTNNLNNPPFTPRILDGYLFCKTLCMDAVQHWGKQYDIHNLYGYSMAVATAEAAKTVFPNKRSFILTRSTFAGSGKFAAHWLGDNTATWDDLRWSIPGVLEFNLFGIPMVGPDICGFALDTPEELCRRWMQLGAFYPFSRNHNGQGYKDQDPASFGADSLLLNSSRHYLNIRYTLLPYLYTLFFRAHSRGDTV
Description: In the assays, COS cells transfected with MGA5′ (maltase subunit clone 10) construct were used. Activity measurements were performed with cell extracts containing MGA. Maltose hydrolysis was monitored by measurement of the glucose released by a glucose oxidase colorimetric assay. Inhibition of this hydrolysis was measured as a reduction in OD reading.
In practice, an OD reading in the absence of the inhibitor was recorded, followed by a reading in the presence of the inhibitor. The percent reduction in OD reading upon administering a candidate inhibitor (see Table 11) was then correlated with a percent inhibition for a given concentration.

[4] = target: T2, Human Pancreatic α-Amylase (HPA) (Homo sapiens, UniProt P04746); assay: Human pancreatic α-amylase assay, hydrolysis of 2,4-Dinitrophenyl maltotrioside; assay type: biochemical
T2 sequence (P04746 16-511): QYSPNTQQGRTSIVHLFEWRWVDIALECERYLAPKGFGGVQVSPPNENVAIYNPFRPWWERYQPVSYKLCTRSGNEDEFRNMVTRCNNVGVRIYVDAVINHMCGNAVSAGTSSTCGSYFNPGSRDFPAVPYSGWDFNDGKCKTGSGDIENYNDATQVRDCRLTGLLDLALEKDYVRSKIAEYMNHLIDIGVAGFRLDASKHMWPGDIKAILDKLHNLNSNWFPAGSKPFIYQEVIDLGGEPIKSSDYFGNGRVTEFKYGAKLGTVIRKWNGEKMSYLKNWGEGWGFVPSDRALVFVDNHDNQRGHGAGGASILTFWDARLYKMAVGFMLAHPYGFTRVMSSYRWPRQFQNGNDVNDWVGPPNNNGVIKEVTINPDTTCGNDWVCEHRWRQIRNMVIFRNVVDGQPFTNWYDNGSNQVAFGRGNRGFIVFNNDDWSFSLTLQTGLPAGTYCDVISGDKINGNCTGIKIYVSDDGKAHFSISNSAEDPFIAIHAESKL
Description: These assays were performed with purified enzyme. The ability of candidate inhibitors to inhibit the hydrolysis of 2,4-Dinitrophenyl maltotrioside was monitored by UV-visible spectroscopy of the released 2,4-dinitrophenol.

[5] = target: T3, porcine pancreatic α-amylase (PPA) (Sus scrofa, UniProt P00690); assay: Inhibition of porcine pancreatic α-amylase activity towards DP17 amylose; assay type: biochemical; settings: amylose DP17, pH 6.9, 37° C.; read-out: Ki value, PPA
T3 construct: purchased Sigma
T3 sequence (P00690 16-511): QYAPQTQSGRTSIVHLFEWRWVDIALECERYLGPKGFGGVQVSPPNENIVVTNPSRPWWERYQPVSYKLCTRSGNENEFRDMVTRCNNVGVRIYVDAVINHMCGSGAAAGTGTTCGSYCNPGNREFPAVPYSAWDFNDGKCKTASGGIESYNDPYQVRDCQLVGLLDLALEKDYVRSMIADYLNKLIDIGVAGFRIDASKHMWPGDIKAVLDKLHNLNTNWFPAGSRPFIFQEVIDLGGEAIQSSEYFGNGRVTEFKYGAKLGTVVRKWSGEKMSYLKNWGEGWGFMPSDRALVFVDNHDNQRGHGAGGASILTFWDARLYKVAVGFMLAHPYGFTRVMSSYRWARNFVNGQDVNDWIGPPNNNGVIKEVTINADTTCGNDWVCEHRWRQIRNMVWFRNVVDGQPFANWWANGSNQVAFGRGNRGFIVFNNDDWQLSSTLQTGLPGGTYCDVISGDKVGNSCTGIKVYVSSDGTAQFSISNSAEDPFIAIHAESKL
Text: (§1) Porcine pancreatic α-amylase (PPA) and bovine serum albumin (BSA) were purchased from Sigma. Amylose EX-1 (DP17; average degree of polymerization 17) was purchased from Hayashibara Chemical Laboratories (Okayama, Japan). Recombinant barley α-amylase isozyme 1 (AMY1) was produced and purified as described.^23 An aliquot of the porcine pancreatic x-amylase (PPA) crystalline suspension (in ammonium sulfate) was dialyzed extensively against the assay buffer without BSA. The enzyme concentration was determined by aid of amino acid analysis as determined using an LKB model Alpha Plus amino acid analyzer. […] Six different final inhibitor concentrations were used in the range 1 μM-5 mM. The inhibitor was pre-incubated with enzyme for 5 min at 37° C. before addition of substrate.

[6] = target: T4, Recombinant barley α-amylase isozyme 1 (AMY1) (Hordeum vulgare, UniProt P00693); assay: Inhibition of barley α-amylase isozyme 1 activity towards DP17 amylose; assay type: biochemical; settings: amylose DP17, pH 5.5, 37° C.; read-out: Ki value, AMY1
T4 construct: made in house
T4 sequence (P00693 25-438): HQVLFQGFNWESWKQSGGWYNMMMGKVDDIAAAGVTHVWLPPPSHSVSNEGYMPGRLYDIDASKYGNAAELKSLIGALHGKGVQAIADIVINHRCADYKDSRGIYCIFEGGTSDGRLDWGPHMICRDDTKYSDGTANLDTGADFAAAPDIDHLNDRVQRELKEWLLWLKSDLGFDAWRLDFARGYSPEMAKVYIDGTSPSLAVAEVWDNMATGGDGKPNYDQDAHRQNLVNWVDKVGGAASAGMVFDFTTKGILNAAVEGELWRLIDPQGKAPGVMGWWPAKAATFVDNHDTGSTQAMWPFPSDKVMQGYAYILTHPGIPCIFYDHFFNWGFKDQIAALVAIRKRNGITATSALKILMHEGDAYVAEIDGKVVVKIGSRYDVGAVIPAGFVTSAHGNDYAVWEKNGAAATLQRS
Text: as §1

Compound | inhibitory activity against sucrase (in words) (sucrase) | Ki [1] | percent inhibition of maltase activity [2] | plasma glucose profile (in words) (Sprague-Dawley rats) | plasma insulin profile (in words) (Sprague-Dawley rats) | time at which insulin values were different from basal (Sprague-Dawley rats) | time at which plasma glucose returned to basal (Sprague-Dawley rats) | glucose Area Under the Curve, 0-90 minutes (in words) (Sprague-Dawley rats; excursion above basal) | decrease of the 90 minute insulin AUC (Sprague-Dawley rats; versus Control) | inhibition of MGA (in words) [3] | inhibition at 5 µM ([3]; read-out: percent inhibition of the breakdown of maltose) | inhibition of HPA (in words) [4] | Ki [5] | Ki [6]
O=S(=O)([O-])O[C@@H]([C@H](O)[C@H](O)[C@@H](O)CO)[C@H](O)C[S+]1C[C@@H](O)[C@H](O)[C@H]1CO (some centres unmarked) [Kotalanol] | more potent inhibitory activity against sucrase than Salicinol and Acarbose |  |  |  |  |  |  |  |  |  |  |  |  | 
O=S(=O)([O-])OC(CO)C(O)C[S+]1CC(O)C(O)C1CO [Salacinol, 1,4-Dideoxy-1,4-[[(2S,3S)-2,4-dihydroxy-3-(sulfooxy)butyl]-episulfoniumylidene]-D-arabinitol Inner Salt, reference compound] |  | 1700 µM | 13% | significantly lower post-prandial plasma glucose | significantly lower post-prandial plasma glucose and insulin concentrations | 15 min | 60 min | slightly lower 90 minute AUC's than Acarbose | 65% | inhibits both HPA and MGA | 60% | inhibits both HPA and MGA | 10 ± 2 µM | 15 ± 1 µM
